29 molecules from PubChem BioAssay AID330 (DTP/NCI, 2004) can be followed below.

This assay relates to P388 leukemia ip, CD2F1 mice, survival T/C. In words: NCI In Vivo Anticancer Drug Screen. Data for tumor model P388 Leukemia (intraperitoneal) in CD2F1 (CDF1) mice. As to conditions: endpoint: median survival time, higher = longer survival. Summed up: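 Mice carrying the transplanted tumor received test compound or vehicle. Survival was recorded in each group, and the value is the treated-group measurement divided by that of the vehicle-treated control group.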

Where [1] appears, read: dose: 60.0 mg/kg/injection, schedule: Q01DX005 (ip), vehicle: saline with Tween-80.
Where [2] appears, read: dose: 120.0 mg/kg/injection, schedule: Q01DX005 (ip), vehicle: saline with Tween-80.
Setting [3] is: dose: 12.5 mg/kg/injection, schedule: Q01DX009 (ip), vehicle: saline.
Setting [4] is: dose: 25.0 mg/kg/injection, schedule: Q01DX009 (ip), vehicle: saline.
Where [5] appears, read: dose: 200.0 mg/kg/injection, schedule: Q01DX009 (ip), vehicle: saline.
[6] abbreviates: dose: 12.5 mg/kg/injection, schedule: Q01DX009 (ip), vehicle: saline with Tween-80.
[7] abbreviates: dose: 50.0 mg/kg/injection, schedule: Q01DX005 (ip), vehicle: saline with Tween-80.
Where [8] appears, read: dose: 50.0 mg/kg/injection, schedule: Q01DX009 (ip), vehicle: saline.
The mark [9] stands for this setting: dose: 100.0 mg/kg/injection, schedule: Q01DX009 (ip), vehicle: saline.
Setting [10] is: dose: 50.0 mg/kg/injection, schedule: Q01DX009 (ip), vehicle: saline with Tween-80.
[11] abbreviates: dose: 100.0 mg/kg/injection, schedule: Q01DX009 (ip), vehicle: saline with Tween-80.
Setting [12] is: dose: 25.0 mg/kg/injection, schedule: Q01DX009 (ip), vehicle: Klucel (hydroxypropylcellulose) (HPC).
Where [13] appears, read: dose: 25.0 mg/kg/injection, schedule: Q01DX009 (ip), vehicle: saline with Tween-80.
Where [14] appears, read: dose: 100.0 mg/kg/injection, schedule: Q01DX005 (ip), vehicle: saline with Tween-80.
[15] abbreviates: dose: 200.0 mg/kg/injection, schedule: Q01DX005 (ip), vehicle: saline with Tween-80.
[16] abbreviates: dose: 50.0 mg/kg/injection, schedule: Q01DX009 (ip), vehicle: Klucel (hydroxypropylcellulose) (HPC).
Where [17] appears, read: dose: 100.0 mg/kg/injection, schedule: Q01DX009 (ip), vehicle: Klucel (hydroxypropylcellulose) (HPC).
Setting [18] is: dose: 200.0 mg/kg/injection, schedule: Q01DX009 (ip), vehicle: Klucel (hydroxypropylcellulose) (HPC).
Setting [19] is: dose: 50.0 mg/kg/injection, schedule: Q01DX005 (ip), vehicle: Klucel (hydroxypropylcellulose) (HPC).
The mark [20] stands for this setting: dose: 100.0 mg/kg/injection, schedule: Q01DX005 (ip), vehicle: Klucel (hydroxypropylcellulose) (HPC).
Where [21] appears, read: dose: 200.0 mg/kg/injection, schedule: Q01DX005 (ip), vehicle: Klucel (hydroxypropylcellulose) (HPC).

“And” between values parts separate entries of the source, which are not always exact repeats. Equal entries are not always repeated. Toxic doses and inconclusive results are not listed.

Turning to `NC/C(=N\Nc1ccc([N+](=O)[O-])cc1[N+](=O)[O-])c1ccccc1`, the T/C was 100 % of control (dose: 100.0 mg/kg/injection, schedule: Q04DX003 (ip), vehicle: saline); 113 % of control (dose: 200.0 mg/kg/injection, schedule: Q04DX003 (ip), vehicle: saline); 95 % of control (dose: 400.0 mg/kg/injection, schedule: Q04DX003 (ip), vehicle: saline).
Turning to `CCCCN(CCCC)CCCNc1nccc2ccccc12`, the T/C was 106 % of control (dose: 6.25 mg/kg/injection, schedule: Q01DX005 (ip), vehicle: saline with Tween-80); 103 % of control (dose: 12.5 mg/kg/injection, schedule: Q01DX005 (ip), vehicle: saline with Tween-80); 106 % of control (dose: 25.0 mg/kg/injection, schedule: Q01DX005 (ip), vehicle: saline with Tween-80).
With `C/C=C\c1ccc(OC(=O)NC)c(OC)c1`, the T/C is 100 % of control under setting [1]; 104 % of control under setting [2]; 100 % of control (dose: 240.0 mg/kg/injection, schedule: Q01DX005 (ip), vehicle: saline with Tween-80).
Regarding `CCOC(=O)CC(N)/C(C)=N\O` (centres undefined), the T/C is 104 % of control (dose: 60.0 mg/kg/injection, schedule: Q01DX005 (ip), vehicle: Klucel + Tween-80); 100 % of control (dose: 120.0 mg/kg/injection, schedule: Q01DX005 (ip), vehicle: Klucel + Tween-80); 100 % of control (dose: 240.0 mg/kg/injection, schedule: Q01DX005 (ip), vehicle: Klucel + Tween-80).
Take `CN(CC(N)=O)C(=O)N(CCCl)N=O`: the T/C reads like this: (dose: 15.0 mg/kg/injection, schedule: Q01DX005 (ip), vehicle: saline with Tween-80) 160 % of control; (dose: 30.0 mg/kg/injection, schedule: Q01DX005 (ip), vehicle: saline with Tween-80) 201 % of control; under setting [1], 263 % of control.
As to `CCCCCCCCCCCCn1ccnc1`, the T/C by setting is: (dose: 100.0 mg/kg/injection, schedule: Q04DX003 (ip), vehicle: saline with Tween-80) 102 % of control; (dose: 200.0 mg/kg/injection, schedule: Q04DX003 (ip), vehicle: saline with Tween-80) 97 % of control.
For `CC(=O)N([Si](C)(C)C)[Si](C)(C)C`, the T/C reads like this: (dose: 6.25 mg/kg/injection, schedule: Q01DX009 (ip), vehicle: saline) 88 % of control and 96 % of control; under setting [3], 100 % of control and 109 % of control and 86 % of control; under setting [4], 101 % of control and 86 % of control and 93 % of control; under setting [5], 100 % of control.
Take `OC1(c2cccc(Cl)c2)C2=NCCCN2c2ccccc21` (centres undefined): the T/C was 95 % of control (dose: 6.25 mg/kg/injection, schedule: Q01DX009 (ip), vehicle: saline with Tween-80) and 91 % of control under setting [6].
Turning to `Cn1cc(N)c2ccccc2c1=O`, the T/C under setting [7] was 103 % of control.
As for `N#CC1=C(C#N)CC(c2ccccc2)CC1` (centres undefined), the T/C by setting is: under setting [8], 104 % of control; under setting [9], 100 % of control; under setting [5], 96 % of control.
Regarding `OC1(c2ccccc2)c2cccc(Cl)c2C(O)(c2ccccc2)c2c(Cl)cccc21` (centres undefined), the T/C is, setting by setting: under setting [10], 99 % of control; under setting [11], 99 % of control; (dose: 200.0 mg/kg/injection, schedule: Q01DX009 (ip), vehicle: saline with Tween-80) 97 % of control.
Consider `COC(=O)CC(C(=O)OC)C(C(=O)OC)C(C(=O)OC)C(CC(=O)OC)C(=O)OC` (centres undefined), for which the T/C reads like this: (dose: 100.0 mg/kg/injection, schedule: Q04DX002 (ip), vehicle: saline with Tween-80) 98 % of control; (dose: 200.0 mg/kg/injection, schedule: Q04DX002 (ip), vehicle: saline with Tween-80) 104 % of control; (dose: 400.0 mg/kg/injection, schedule: Q04DX002 (ip), vehicle: saline with Tween-80) 102 % of control.
Regarding `CC(=O)O.CC(=O)O.[Co+2].[NH-]C(CCC(N)=O)C(=O)O.[NH-]C(CCC(N)=O)C(=O)O` (centres undefined), under setting [10], the T/C is 98 % of control.
For `CCn1cnc2c(=S)nc(N)[nH]c21`, under setting [12], the T/C was 105 % of control.
For `COc1cc(CC(C)N)ccc1O` (centres undefined), the T/C is, setting by setting: under setting [6], 100 % of control; under setting [13], 99 % of control; under setting [10], 104 % of control; under setting [11], 95 % of control.
With `CC(CCC(=O)O)(c1ccc(OC(=O)Nc2ccc([N+](=O)[O-])cc2)cc1)c1ccc(OC(=O)Nc2ccc([N+](=O)[O-])cc2)cc1`, the T/C was 111 % of control under setting [7], 96 % of control under setting [14] and 93 % of control under setting [15].
Regarding `Cc1cc(C)nc(C2=C(O)c3ccccc3C2=O)c1`, the T/C is 106 % of control (dose: 60.0 mg/kg/injection, schedule: Q01DX005 (ip), vehicle: Klucel (hydroxypropylcellulose) (HPC)); 99 % of control (dose: 120.0 mg/kg/injection, schedule: Q01DX005 (ip), vehicle: Klucel (hydroxypropylcellulose) (HPC)); 87 % of control and 96 % of control (dose: 240.0 mg/kg/injection, schedule: Q01DX005 (ip), vehicle: Klucel (hydroxypropylcellulose) (HPC)).
As for `N#CC1C(=O)NC(=S)NC1CCc1ccccc1` (centres undefined), the T/C under setting [16] was 105 % of control, the T/C under setting [17] is 99 % of control and the T/C under setting [18] was 100 % of control.
On to `CC(=O)C(=Cc1ccc(Cl)cc1)C(C)=O`, for which the T/C is 97 % of control under setting [7] and 101 % of control under setting [14].
Turning to `C=C(CN(C)C)C(=O)c1cc(C)ccc1C`, the T/C runs as follows: (dose: 0.93 mg/kg/injection, schedule: Q01DX005 (ip), vehicle: saline) 100 % of control; (dose: 1.87 mg/kg/injection, schedule: Q01DX005 (ip), vehicle: saline) 100 % of control; (dose: 3.75 mg/kg/injection, schedule: Q01DX005 (ip), vehicle: saline) 98 % of control.
Regarding `COc1ccc(/C=C/C(=N/Nc2ccccc2)C(C)CN(C)C)cc1` (centres undefined), the T/C under setting [1] was 101 % of control and the T/C under setting [2] was 95 % of control.
Turning to `CC(C(=O)O)N1C(=O)CNC1=O` (centres undefined), the T/C is 93 % of control under setting [19], 91 % of control under setting [20] and 100 % of control under setting [21].
Regarding `C=C(C)C(=O)Nc1ccc2nn(-c3ccccc3O)nc2c1`, the T/C runs as follows: under setting [8], 93 % of control; under setting [9], 86 % of control; under setting [5], 94 % of control.
Turning to `O=c1n(-c2ccccc2)c(=O)n2n1C1C3C4C5C1C5C2C43` (centres undefined), the T/C is, setting by setting: (dose: 6.25 mg/kg/injection, schedule: Q01DX009 (ip), vehicle: Klucel (hydroxypropylcellulose) (HPC)) 100 % of control; (dose: 12.5 mg/kg/injection, schedule: Q01DX009 (ip), vehicle: Klucel (hydroxypropylcellulose) (HPC)) 87 % of control.
As for `O=C1C(c2ccccc2)=C(c2ccccc2)C2(c3ccccc3)C=NNC12c1ccccc1` (centres undefined), the T/C is 95 % of control (dose: 6.25 mg/kg/injection, schedule: Q01DX005 (ip), vehicle: Klucel (hydroxypropylcellulose) (HPC)) and 92 % of control (dose: 12.5 mg/kg/injection, schedule: Q01DX005 (ip), vehicle: Klucel (hydroxypropylcellulose) (HPC)).
Regarding `COC(=O)C1(OC)C(=O)NC2=C1C(=O)c1ccccc1C2=O` (centres undefined), the T/C under setting [7] is 94 % of control, the T/C under setting [14] was 105 % of control and the T/C under setting [15] was 106 % of control.
Take `COc1ccccc1-n1c(Cc2cccc3ccccc23)n[nH]c1=S`: the T/C was 99 % of control under setting [19], 100 % of control under setting [20] and 99 % of control under setting [21].
As for `Cc1csc(NC(=O)Nc2ccc(F)cc2[N+](=O)[O-])n1`, the T/C reads like this: under setting [12], 106 % of control; under setting [16], 97 % of control; under setting [10], 105 % of control; under setting [17], 100 % of control; under setting [11], 94 % of control; under setting [18], 95 % of control.
As to `O=C(O)CN(CCO)CCN(CC(=O)O)CC(=O)O`, the T/C is 100 % of control under setting [3]; 100 % of control under setting [13]; 104 % of control under setting [4]; 95 % of control under setting [10]; 95 % of control under setting [8]; 100 % of control under setting [11]. Moreover, under setting [9], the T/C is 98 % of control.
